Data published in patent US20220280507A1, “USES OF 5-METHYLTETRAHYDROFOLATE AND ITS COMPOSITION” (Lianyungang Jinkang Hexin Pharmaceutical Co., Ltd., priority 2019, published 2022).
Read-outs that look alike come from different tables or passages of the source.

Legend:
homocysteine (Hcy) = assay: Homocysteine (Hcy) in plasma of alcohol drinking rats; format: in vivo, SD rats; details: plasma 6 h after Erguotou 20 ml·Kg−1
Method: Experiment 2 Effect of 5-methyltetrahydrofolate on homocysteine (Hcy) in plasma of alcohol drinking rats.
30 SPF-grade SD rats were chosen in half male and half female, and divided into 5 groups with 6 rats in each group, including normal group, model group, positive drug group (Weihe Liver Protectant), 5-methyltetrahydrofolate administration groups (4 mg·Kg−1 medium dose group, 8 mg·Kg−1 high dose group, respectively). After fasting for 12 h, the administration groups were given Weihe Liver Protectant at 50 mg·kg−1, 5-methyltetrahydrofolate (Jinkang Hexin product) at 4 mg·Kg−1, 5-methyltetrahydrofolate (Jinkang Hexin product) at 8 mg·Kg−1, respectively. […] 6 h after drinking, blood was collected from the eye socket, treated with 0.5% EDTA-Na for anticoagulation (10 ml/L), immediately cooled in an ice bath, and centrifuged at 4° C. (3500r/min) for 15 min within 30 min. Plasma was collected and stored at −20° C. The plasma Hcy concentration was determined with high pressure liquid chromatography-fluorescence detection method.

[1] = test system: methanol metabolism in rats; details: n=5
Method: Experiment 10 Effects of Drinking and 5-Methyltetrahydrofolate on the Formate in the Urine of SD Rats
In order to study the effects of 5-methyltetrahydrofolate and ethanol on methanol metabolism in rats, SPF-grade female SD rats, fasted overnight, were divided into 4 groups: (1) ethanol group, with intragastric administration of ethanol at a dose of 1 g/kg respectively at 1, 2, 3 h, n=7; (2) control group, with intragastric administration of glucose at a dose of 1.6 g/kg (equivalent to alcohol calories) respectively at 1, 2, and 3 h, n=5; (3) 5-methyltetrahydrofolate group, with intragastric administration of 5-methyltetrahydrofolate calcium at a dose of 4 mg/kg at 0 h, followed by glucose at a dose of 1.6 g/kg (equivalent to alcohol calories) respectively at 1, 2, and 3 h, n=5; (4) 5-methyltetrahydrofolate alcohol group, with intragastric administration of 5-methyltetrahydrofolate calcium at a dose of 4 mg/kg at 0 h, followed by ethanol at a dose of 1 g/kg respectively at 1, 2, and 3 h, n=5.
Food grade alcohol was used, with a methanol content of less than 5 mg/L. Urine was collected, from 0 to 24 h, into a test tube containing 0.1 mL of thioethanol and stored at −70° C. The urine samples were divided into three parts, of which gas chromatographic method, fluorescence method and HPLC-DNPH derivative method were used to detect ethanol and methanol contents (see Table 16), formate content, and formaldehyde content (see Table 17) in urine, respectively.
The method for detecting formate is as follows: 0.1 mL of urine was mixed with 0.1 mL of 10 mmol/L NAD+, 0.1 mL of potassium phosphate buffer (pH 7.4, 20 mmol/L) and 50 μL of formate dehydrogenase, then 0.1 mL of diaphorase (4 U/mL), 50 μL of resazurin solution (0.2 mg/ml) and 0.5 ml of phosphate buffer (pH 6.00, 200 mmol/L) were added. The mixture was incubated at 37° C. for 5 min, then immersed in boiling water for 3 min, and then cooled to room temperature. Fluorescence spectrophotometry was used to determine the content of formate in the mixture, with an emission wavelength of 590 nm and an absorption wavelength of 565 nm.
The method for detecting formaldehyde is as follows: 0.1 ml of urine was taken and filtered through filtering membrane, 0.05 ml of 2,4-dinitrophenylhydrazine (DNPH, 0.1 g/L) and 0.25 ml of trifluoroacetic acid were added to it. The sample was vortexed for 30 s, centrifuged, […]. HPLC was used for analysis, with a detection wavelength of 355 nm, column temperature of 35° C., and mobile phase of 65% acetonitrile.

[2] = 5-methyltetrahydrofolate calcium 4 mg/kg ig at 0 h + ethanol 1 g/kg at 1, 2, 3 h
[3] = 5-methyltetrahydrofolate calcium 4 mg/kg ig at 0 h + glucose 1.6 g/kg at 1, 2, 3 h

SMILES: CN1c2c([nH]c(N)nc2=O)NCC1CNc1ccc(C(=O)N[C@@H](CCC(=O)O)C(=O)O)cc1 (stereo partly drawn) [5-methyltetrahydrofolate, N-[4-[[(2-amino-1,4,5,6,7,8-hexahydro-4-oxo-5-methyl-(6S), -(6R), and (6R,S)-pteridyl)methyl)amino)toluoyl-glutamic acid]
- Hcy (homocysteine (Hcy); 4 mg·Kg−1, n=6): 3.13 ± 1.26 µmol/L
- Hcy (homocysteine (Hcy); 8 mg·Kg−1, n=6): 2.32 ± 1.49 µmol/L
- Ethanol content in urine, 3 h [1, 2]: 11.6 ± 1.3 mg/L
- Formaldehyde content in urine, 3 h [1, 2]: 0.8 ± 0.4 mg/L
- Formate content in urine, 3 h [1, 2]: 241 ± 42 mg/L
- Methanol content in urine, 3 h [1, 2]: 1.6 ± 0.3 mg/L
- Ethanol content in urine, 4 h [1, 2]: 25.2 ± 2.2 mg/L
- Formaldehyde content in urine, 4 h [1, 2]: 1.7 ± 0.6 mg/L
- Formate content in urine, 4 h [1, 2]: 255 ± 30 mg/L
- Methanol content in urine, 4 h [1, 2]: 2.5 ± 0.4 mg/L
- Ethanol content in urine, 8 h [1, 2]: 24.1 ± 2.3 mg/L
- Formaldehyde content in urine, 8 h [1, 2]: 2.9 ± 1.2 mg/L
- Formate content in urine, 8 h [1, 2]: 345 ± 43 mg/L
- Methanol content in urine, 8 h [1, 2]: 6.4 ± 1.0 mg/L
- Ethanol content in urine, 12 h [1, 2]: 11.8 ± 2.0 mg/L
- Formaldehyde content in urine, 12 h [1, 2]: 3.1 ± 1.0 mg/L
- Formate content in urine, 12 h [1, 2]: 351 ± 45 mg/L
- Methanol content in urine, 12 h [1, 2]: 4.4 ± 0.9 mg/L
- Ethanol content in urine, 16 h [1, 2]: 4.3 ± 0.8 mg/L
- Formaldehyde content in urine, 16 h [1, 2]: 1.9 ± 0.9 mg/L
- Formate content in urine, 16 h [1, 2]: 247 ± 48 mg/L
- Methanol content in urine, 16 h [1, 2]: 3.7 ± 0.9 mg/L
- Ethanol content in urine, 24 h [1, 2]: 1.7 ± 0.7 mg/L
- Formaldehyde content in urine, 24 h [1, 2]: 1.0 ± 0.5 mg/L
- Formate content in urine, 24 h [1, 2]: 211 ± 39 mg/L
- Methanol content in urine, 24 h [1, 2]: 1.9 ± 0.7 mg/L
- Ethanol content in urine, 3 h [1, 3]: 0.6 ± 0.4 mg/L
- Formaldehyde content in urine, 3 h [1, 3]: 0.8 ± 0.4 mg/L
- Formate content in urine, 3 h [1, 3]: 215 ± 33 mg/L
- Methanol content in urine, 3 h [1, 3]: 1.0 ± 0.3 mg/L
- Ethanol content in urine, 4 h [1, 3]: 0.8 ± 0.5 mg/L
- Formaldehyde content in urine, 4 h [1, 3]: 0.8 ± 0.5 mg/L
- Formate content in urine, 4 h [1, 3]: 237 ± 42 mg/L
- Methanol content in urine, 4 h [1, 3]: 1.1 ± 0.4 mg/L
- Ethanol content in urine, 8 h [1, 3]: 1.5 ± 0.4 mg/L
- Formaldehyde content in urine, 8 h [1, 3]: 0.7 ± 0.4 mg/L
- Formate content in urine, 8 h [1, 3]: 198 ± 36 mg/L
- Methanol content in urine, 8 h [1, 3]: 1.2 ± 0.4 mg/L
- Ethanol content in urine, 12 h [1, 3]: 1.5 ± 0.3 mg/L
- Formaldehyde content in urine, 12 h [1, 3]: 0.8 ± 0.3 mg/L
- Formate content in urine, 12 h [1, 3]: 187 ± 32 mg/L
- Methanol content in urine, 12 h [1, 3]: 1.1 ± 0.4 mg/L
- Ethanol content in urine, 16 h [1, 3]: 1.7 ± 0.5 mg/L
- Formaldehyde content in urine, 16 h [1, 3]: 0.8 ± 0.5 mg/L
- Formate content in urine, 16 h [1, 3]: 190 ± 41 mg/L
- Methanol content in urine, 16 h [1, 3]: 1.3 ± 0.5 mg/L
- Ethanol content in urine, 24 h [1, 3]: 1.6 ± 0.4 mg/L
- Formaldehyde content in urine, 24 h [1, 3]: 0.8 ± 0.4 mg/L
- Formate content in urine, 24 h [1, 3]: 188 ± 36 mg/L
- Methanol content in urine, 24 h [1, 3]: 1.1 ± 0.3 mg/L
